The text below walks through data of US20250268829A1, “INHALED ANTIBACTERIAL FORMULATIONS FOR TREATING LUNG INFECTIONS” (Board of Regents, The University of Texas System, priority 2022, published 2025).

The nature of data set [1]: HPLC stability upon aerosolization and storage. Conditions: capsule (before aerosolization) and NGI stage 4 (after aerosolization) samples. The class given is physicochemical. The method, then:
Stability upon aerosolization was assessed using High-Performance Liquid Chromatography (HPLC) by the method described by Lucelia Magalhaes da Silva and Herida Regina Nunes Salgado in Validation of a Stability-Indicating RP-LC Method for the Determination of Tigecycline in Lyophilized Powder, J. Chromatogr. Sci. 51:192-199 (2012). The powder accumulated on Stage 4 (after aerosolization), as well as the capsule (before aerosolization) after running the NGI, was dissolved in a buffer containing 0.015 M oxalic acid and 0.015 M sodium phosphate monobasic at pH 7. The mobile phase used was 75 (0.015 M oxalic acid and 0.015 M sodium phosphate monobasic at pH 7): 25 (Acetonitrile). The flow rate was kept at 1 mL/min and UV absorbance was measured at 245 nm. A forcefully degraded sample (tigecycline left in water for 1 week at RT without protection from light) was also incorporated as a control to assess the ability of the method to detect degradants.
The milled powder was stored for 30 days at 25° C./60% RH and 45° C./75% RH, as specified by the International Council for Harmonization (ICH) intermediate and accelerated stability conditions using sealed amber vials. At the 30-day and 6 month time point, the powder was characterized for its physicochemical properties, stability, and aerosol performance. […]

The test system of the next data set is Calu-3 cells. Kind of data set: Cell viability, MTT assay. The class given is cell-based. The method, then:
Calu-3 cells between passage 14-17 were grown in Dulbecco's Modified Eagle Medium (DMEM)+10% Fetal Bovine Serum (FBS)+1% Non-Essential Amino Acids (NEAA)+1% Penicillin Streptomycin (PS)+1% Sodium pyruvate in a 75 cm^2 flask. The media was changed every other day.
To assess the toxicity of the tigecycline powders, Calu-3 cells were seeded into 96-well tissue culture plates at a seeding density of 9000 cells/well. The cells were cultured overnight in media. […] The powders were dissolved in media and 100 μL of each concentration was added to the wells. Control wells containing only media were also set up. […] […] At 3 hours, MTT reagent/culture media was removed and 150 μl of MTT dissolving solvent was added to the well. The well-plate was wrapped in foil and kept on an electronic shaker for 15 minutes. The absorbance was then read at 590 nm using the Tecan microplate reader (Tecan Global Headquarters, Männedorf, Switzerland).
For orientation: Tetrazolium dyes change colour on reduction, which living cells bring about.

The next data set has as its system Calu-3 cell monolayer. Kind of data set: Drug permeability across air-liquid interface monolayer. The class given is in vitro ADME. On the procedure: Calu-3 cells were plated at a cell density of 33,000 cells/well in 24-well transwell inserts on the apical side and 500 μL media was added to the basolateral side. 48 hours after plating the cells, the cells were airlifted (i.e the media from the apical and basolateral side was aspirated and only the basolateral side was replaced with media).
Cell integrity of the Calu-3 monolayer was measured every other day after airlifting. Briefly, the media from the basolateral side was aspirated. 200 μL of Hank's balanced salt solution (HBSS) buffer was added to the apical side and 500 μL of HBSS was added to the basolateral side. The transepithelial electrical resistance (TEER) was measured using an epithelial Voltohmmeter. The short electrode was dipped into the buffer on the apical side and the longer electrode was dipped into the buffer on the basolateral side. Using the measured value the TEER was calculated using equation (2): […]
The permeation experiments were carried out between days 5-7 after airlifting when the TEER values were ˜700Ω which indicates epithelial cell integrity and the absence of a leaky monolayer. The amount of drug transported across the cell layer were measured as follows: Milled and unmilled powders of tigecycline were dissolved in 200 μL of HBSS at a concentration of 10 μM and 20 μM. The media in the basolateral side was replaced by HBSS. 10 μL sample was collected from the basolateral side at the following intervals: 5 min, 15 min, 30 min, 45 min, 60 min, 2 hours, 4 hours, 6 hours, 8 hours, 12 hours, and 24 hours. After each aliquot, 10 μL of HBSS buffer was replaced into the basolateral chamber. This procedure was repeated to measure the permeability from the basolateral side to the apical side where samples were aliquoted from the apical side. The apparent permeability can be calculated as follows:
[formula] • Where • dQ/dt=Concentration flux • A=Surface area • Co=initial concentration

In data set [2] the test system is S. maltophilia. Kind of data set: Minimum inhibitory concentration, OD 600. The class given is cell-based, Stenotrophomonas maltophilia. The method, then: (§1) Stenotrophomonas maltophilia was obtained from American Type Culture Collection (ATCC, Manassas, VA) (ATCC 13637). S. maltophilia dried pellet was reconstituted in nutrient broth and frozen until further use. An inoculation loop was used to collect S. maltophilia from the stock solution and was streaked onto nutrient agar plates. The plates were incubated at 37° C. for 24 hours. At the 24-hour point, an inoculation loop was used to transfer bacteria from the plate to 5 mL of liquid nutrient broth. The bacteria in the liquid medium were left overnight on a shaker at 37° C.
Liquid bacterial culture was prepared as described above. 200 μL of the overnight liquid culture was added to 96 well plates. Varying concentrations of TIG were added to the 96 well plates ranging from 0.12 μg/mL to 64 μg/mL. All TIG concentrations were tested in triplicate. The well plate was allowed to incubate at 37° C. for 24 hours, and the MIC was determined using the OD 600 values.

Another data set concerns S. maltophilia biofilm. Put plainly: Biofilm eradication (MBEC), XTT assay. The class given is cell-based, Stenotrophomonas maltophilia. On the procedure:
as §1
S. maltophilia was grown as described above. 200 μL of the bacteria in nutrient broth was added onto 96 well plates for varying amounts of time ranging from 1 day to 5 days. The bacterial biomass at each time point was assessed using crystal violet assay. Briefly, the liquid media was aspirated at each time point, and the wells were washed twice with 200 μL of phosphate-buffered saline (PBS). […] The bound dye was then solubilized in 33% v/v acetic acid, and the absorbance was measured at 595 nm. […]
200 μL of this standardized culture was added to 96 well plates and allowed to grow overnight at 37° C. […] At 24 hours, the viability of the bacteria was evaluated using the XTT assay. […] After 3 hours, the absorbance was measured at 490 nm.

In the next data set the test system is Mycobacterium abscessus. Kind of data set: In vitro efficacy (MIC) against Mycobacterium abscessus. The class given is cell-based. Conditions: Mycobacteroides abscessus, Mab in Middlebrook 7H9 broth; read-out: minimal inhibitory concentration (MIC). The method, then: Mab was cultured in Middlebrook 7H9 liquid broth for 48 hours. 100 μL of inoculum was then added to 96 well plate with 50 μL of different concentrations of Tigecycline (0.1 to 240 μg/mL) (FIG. 3).

The subject of data set [3] is S. maltophilia. Conditions: cited from earlier work.

In brackets after ≈: the same amount, converted by molar mass.

For the compound `CN(C)c1cc(NC(=O)CNC(C)(C)C)c(O)c2c1C[C@H]1C[C@H]3[C@H](N(C)C)C(O)=C(C(N)=O)C(=O)[C@@]3(O)C(O)=C1C2=O` [Tigecycline, tigecycline], the “degradation peaks in HPLC chromatograms” value in data set [1] is given as “none of the degradation peaks were observed”. In the data set with Calu-3 cells (5 mM and 7.5 mM, 4-hour and 8-hour point), the “effect on Calu-3 cell viability” value is listed as “significant cell death”. The “concentration up to which Calu-3 cells were viable” value in the data set on Calu-3 cells (4-hour and 8-hour point, submerged culture) came to 2500 µM. Moreover, the “maximum concentration that allowed the cells to maintain their viability” value was 125 µM with Calu-3 cells (12-hour point) and 25 µM in the data set on Calu-3 cells (24 hours). For the same compound, the “tigecycline permeated through the cell monolayer” value with Calu-3 cell monolayer (apical to basolateral, across a 12-hour time point, HPLC limit of detection 1 μM) is “less than 1 μM”. In addition, the “drug remaining in the apical (donor) side” value in the data set with Calu-3 cell monolayer (at the end of the experiment) is roughly 100%. In addition, the “permeability across the cell monolayer” value with Calu-3 cell monolayer (basolateral to apical direction) is reported as “impermeability”. The “inhibition of growth of S. maltophilia” value is given as “failed to inhibit bacterial growth” in the data set on S. maltophilia [2] (0.1 μg/mL and 0.25 μg/mL); “completely” with S. maltophilia [2] (concentrations equal to or greater than 0.5 μg/mL). Moreover, in the data set with S. maltophilia [2] (0.12 and 0.25 μg/mL), the “OD 600 value normalized to control” value was roughly 1. Besides, the MIC with S. maltophilia [2] (Stenotrophomonas maltophilia, 24 hours, OD 600, read-out: Minimum Inhibitory Concentrations (MIC)) was 0.5 µg/mL (≈ 0.854 µM); in the data set with Mycobacterium abscessus it was greater than 4 µg/mL. The “OD 600 values versus control” value in the data set with S. maltophilia [2] (concentrations >0.5 μg/mL) was “significantly lower than that of control”. In addition, in the data set with S. maltophilia biofilm (concentrations above 0.5 μM, 24 hours), the “inhibition of biofilm formation” value is recorded as roughly 85%. In the data set with S. maltophilia biofilm (concentrations lower than 0.5 μM), the “inhibition of S. maltophilia biofilm formation” value is “could not effectively inhibit”. In addition, the “susceptibility of S. maltophilia” value with S. maltophilia [3] is listed as “more than 90%”.
